≈ marks a conversion by molar mass, not a printed value. Where two headings read alike, the source gives them in different places.
Assays:
Pseudomonas aeruginosa = experiment: MIC, 25 ocular isolates, broth microdilution (Example 8); assay type: cell-based
Outline: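 Broth microdilution in Mueller-Hinton broth, polypropylene plates, inoculum from 0.5 McFarland suspension diluted 0.05 ml into 5 ml; final test agent 64–0.0625 μg/ml (128–0.125 μg/ml for P. aeruginosa) in 0.01% acetic acid, 0.2% BSA diluent. Incubated 37° C overnight; MIC read visually as lowest concentration inhibiting visible growth.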

S. aureus ATCC 27660 = experiment: MIC, control bacteria (Example 8); assay type: cell-based
Protocol: • Mueller-Hinton Broth in tubes was inoculated with 25 ocular isolates of Staphylococcus aureus fluoroquinolone-susceptible, Staphylococcus aureus fluoroquinolone-resistant, Staphylococcus epidermidis (Coagulase-negative Staphylococcus) fluoroquinolone-susceptible, Staphylococcus epidermidis (Coagulase-negative Staphylococcus) fluoroquinolone-resistant, Pseudomonas aeruginosa and Serratia marcescens, plus two controls (Staphylococcus aureus and E. coli) and incubated at 37° C. overnight on a shaker set at 250 rpm.
Control Bacteria—The two control bacteria (Staphylococcus aureus and E. coli) were treated as above.
Control Bacteria Set #1—this set of control bacteria were treated as the Streptococcus pneumoniae, Streptococcus viridans and Moraxella species (including Moraxella catarrhalis) test isolates above; the control bacteria underwent the same conditions as the test Streptococcus pneumoniae, Streptococcus viridans and Moraxella species (including Moraxella catarrhalis) isolates. This set of control bacteria was to determine whether there was a difference in the MICs by performing the MIC determinations in 2% lysed horse red blood cells with the standard method performed in Mueller-Hinton broth.
Control Bacteria Set #2—the control bacteria were added to 5 ml of Mueller-Hinton Broth without the 2% lysed horse red blood cells to achieve the standard inoculum concentration. This set of control bacteria is the normal control to determine whether the compounds are at the target MICs.
Control Bacteria Set #1—this set of control bacteria were treated as the Haemophilus influenzae test isolates above; the control bacteria underwent the same conditions as the test Haemophilus influenzae isolates. This set of control bacteria is to determine whether there was a difference in the MICs by performing the MIC determinations in HTM broth with the standard method performed in Mueller-Hinton broth.
Control Bacteria Set #2—the control bacteria were added to 5 ml of Mueller-Hinton Broth to achieve the standard inoculum concentration. This set of control bacteria is the normal control to determine whether the compounds are at the target MICs.
Ninety μl of the bacterial suspensions was dispensed in each well from column 1 to column 12. Each bacterial isolate was placed in one row of a 96 well polypropylene plate containing the test agents. The plates were placed on shaker at 15 minutes at room temperature, and then incubated at 37° C. overnight. MICs were determined visually as the lowest concentration of drug that inhibits visible bacterial growth.

[1] = Control Bacteria S. aureus ATCC 27660

## N=C(N)NCCCCC(=O)Nc1cc(C(F)(F)F)cc(NC(=O)c2cnc(C(=O)Nc3cc(C(F)(F)F)cc(NC(=O)CCCCNC(=N)N)c3SCCN)cn2)c1SCCN [Oligomer 5]
Pseudomonas aeruginosa; 25 isolates, Row 13
  MIC50: 64 µg/mL (≈ 69.8 µM)
Pseudomonas aeruginosa; 25 isolates, Summary of Results, >128 was Replaced with 256
  Range of MICs: 4 to 256 µg/mL
Pseudomonas aeruginosa; Pseudomonas aeruginosa, 25 ocular isolates, read-out: Median MIC
  MIC: 64 µg/mL (≈ 69.8 µM)
Pseudomonas aeruginosa; Pseudomonas aeruginosa, isolate 1—K1673, read-out: MIC
  MIC: 32 µg/mL (≈ 34.9 µM)
Pseudomonas aeruginosa; Pseudomonas aeruginosa, isolate 2—K1668, read-out: MIC
  MIC: 64 µg/mL (≈ 69.8 µM)
Pseudomonas aeruginosa; Pseudomonas aeruginosa, isolate 3—K1662, read-out: MIC
  MIC: 64 µg/mL (≈ 69.8 µM)
Pseudomonas aeruginosa; Pseudomonas aeruginosa, isolate 4—K1657, read-out: MIC
  MIC: 64 µg/mL (≈ 69.8 µM)
Pseudomonas aeruginosa; Pseudomonas aeruginosa, isolate 5—K1651, read-out: MIC
  MIC: 128 µg/mL (≈ 140 µM)
Pseudomonas aeruginosa; Pseudomonas aeruginosa, isolate 6—K1649, read-out: MIC
  MIC: 64 µg/mL (≈ 69.8 µM)
Pseudomonas aeruginosa; Pseudomonas aeruginosa, isolate 7—K1564, read-out: MIC
  MIC: > 128 µg/mL
Pseudomonas aeruginosa; Pseudomonas aeruginosa, isolate 8—K1636, read-out: MIC
  MIC: 4 µg/mL (≈ 4.36 µM)
Pseudomonas aeruginosa; Pseudomonas aeruginosa, isolate 9—K1634, read-out: MIC
  MIC: 128 µg/mL (≈ 140 µM)
Pseudomonas aeruginosa; Pseudomonas aeruginosa, isolate 10—K1633, read-out: MIC
  MIC: 64 µg/mL (≈ 69.8 µM)
Pseudomonas aeruginosa; Pseudomonas aeruginosa, isolate 11—K1632, read-out: MIC
  MIC: 64 µg/mL (≈ 69.8 µM)
Pseudomonas aeruginosa; Pseudomonas aeruginosa, isolate 12—K1631, read-out: MIC
  MIC: 64 µg/mL (≈ 69.8 µM)
Pseudomonas aeruginosa; Pseudomonas aeruginosa, isolate 13—K1629, read-out: MIC
  MIC: 64 µg/mL (≈ 69.8 µM)
Pseudomonas aeruginosa; Pseudomonas aeruginosa, isolate 14—K1627, read-out: MIC
  MIC: 64 µg/mL (≈ 69.8 µM)
Pseudomonas aeruginosa; Pseudomonas aeruginosa, isolate 15—K1626, read-out: MIC
  MIC: 128 µg/mL (≈ 140 µM)
Pseudomonas aeruginosa; Pseudomonas aeruginosa, isolate 16—K1625, read-out: MIC
  MIC: 64 µg/mL (≈ 69.8 µM)
Pseudomonas aeruginosa; Pseudomonas aeruginosa, isolate 17—K1562, read-out: MIC
  MIC: 128 µg/mL (≈ 140 µM)
Pseudomonas aeruginosa; Pseudomonas aeruginosa, isolate 18—K1613, read-out: MIC
  MIC: 32 µg/mL (≈ 34.9 µM)
Pseudomonas aeruginosa; Pseudomonas aeruginosa, isolate 19—K1553, read-out: MIC
  MIC: 128 µg/mL (≈ 140 µM)
Pseudomonas aeruginosa; Pseudomonas aeruginosa, isolate 20—K1594, read-out: MIC
  MIC: 64 µg/mL (≈ 69.8 µM)
Pseudomonas aeruginosa; Pseudomonas aeruginosa, isolate 21—K1588, read-out: MIC
  MIC: 128 µg/mL (≈ 140 µM)
Pseudomonas aeruginosa; Pseudomonas aeruginosa, isolate 22—K1554, read-out: MIC
  MIC: 128 µg/mL (≈ 140 µM)
Pseudomonas aeruginosa; Pseudomonas aeruginosa, isolate 23—K1580, read-out: MIC
  MIC: 32 µg/mL (≈ 34.9 µM)
Pseudomonas aeruginosa; Pseudomonas aeruginosa, isolate 24—K1577, read-out: MIC
  MIC: 64 µg/mL (≈ 69.8 µM)
Pseudomonas aeruginosa; Pseudomonas aeruginosa, isolate 25—K1576, read-out: MIC
  MIC: 128 µg/mL (≈ 140 µM)
Pseudomonas aeruginosa; Pseudomonas aeruginosa, n=25 per group, read-out: Median MIC
  MIC: 64 µg/mL (≈ 69.8 µM)
Pseudomonas aeruginosa; Pseudomonas aeruginosa, 25 isolates, Summary of Results, read-out: MIC50
  MIC50: 64 µg/mL (≈ 69.8 µM)
Pseudomonas aeruginosa; Pseudomonas aeruginosa, 25 isolates, Summary of Results, read-out: MIC90
  MIC90: 128 µg/mL (≈ 140 µM)
Pseudomonas aeruginosa; Pseudomonas aeruginosa, 25 isolates, Summary of Results, read-out: Median MIC
  MIC: 64 µg/mL (≈ 69.8 µM)
Pseudomonas aeruginosa; n=25 per group
  MIC50: 64 µg/mL (≈ 69.8 µM)
  MIC90: 128 µg/mL (≈ 140 µM)
  Range of MICs: 4 to 256 µg/mL
S. aureus ATCC 27660; [1]
  Decrease of activity by addition of 2% lysed horse red blood cells to Mueller-Hinton broth: increase or have no effect
  Decrease of activity by use of HTM broth: approximately 8 fold
S. aureus ATCC 27660; Control Bacteria Set #1, run with Haemophilus influenzae MIC test, read-out: MIC
  MIC: 4 µg/mL (≈ 4.36 µM)
S. aureus ATCC 27660; S. aureus ATCC 27660
  MIC: 0.78 µg/mL (≈ 0.851 µM)
S. aureus ATCC 27660; S. aureus ATCC 27660, Control for MIC Test SA-FQR, first batch
  MIC: 8 µg/mL (≈ 8.72 µM)
S. aureus ATCC 27660; S. aureus ATCC 27660, Control for MIC Test SA-FQS, first batch
  MIC: 16 µg/mL (≈ 17.4 µM)
S. aureus ATCC 27660; S. aureus ATCC 27660, new batches, Control Only 1
  MIC: 0.25 µg/mL (≈ 0.273 µM)
S. aureus ATCC 27660; S. aureus ATCC 27660, new batches, Control Only 2
  MIC: 0.25 µg/mL (≈ 0.273 µM)
S. aureus ATCC 27660; S. aureus ATCC 27660, new batches, Control Only 3
  MIC: 0.5 µg/mL (≈ 0.545 µM)
S. aureus ATCC 27660; S. aureus ATCC 27660, new batches, Control Only 4
  MIC: 0.5 µg/mL (≈ 0.545 µM)
S. aureus ATCC 27660; Staphylococcus aureus, ATCC27660, Control Bacteria Set #1, run with Moraxella MIC test, read-out: MIC
  MIC: 1 µg/mL (≈ 1.09 µM)
S. aureus ATCC 27660; Staphylococcus aureus, ATCC27660, Control Only 1, read-out: MIC of control bacteria on day of MIC testing
  MIC: 0.25 µg/mL
S. aureus ATCC 27660; Staphylococcus aureus, ATCC27660, Control Only 2, read-out: MIC of control bacteria on day of MIC testing
  MIC: 0.25 µg/mL
S. aureus ATCC 27660; Staphylococcus aureus, ATCC27660, Control Only 3, read-out: MIC of control bacteria on day of MIC testing
  MIC: 0.5 µg/mL
S. aureus ATCC 27660; Staphylococcus aureus, ATCC27660, Control Only 4, read-out: MIC of control bacteria on day of MIC testing
  MIC: 0.5 µg/mL
S. aureus ATCC 27660; Staphylococcus aureus, ATCC27660, S. aureus ATCC 27660, Control Bacteria Set #1 (same conditions as test isolates), run with Streptococcus pneumoniae MIC test, read-out: MIC
  MIC: 1 µg/mL (≈ 1.09 µM)
S. aureus ATCC 27660; Staphylococcus aureus, ATCC27660, S. aureus ATCC 27660, Control Bacteria Set #1 (same conditions as test isolates), run with Streptococcus viridans group MIC test, read-out: MIC
  MIC: 1 µg/mL (≈ 1.09 µM)
S. aureus ATCC 27660; Staphylococcus aureus, ATCC27660, S. aureus ATCC 27660, Control Bacteria Set #2 (Mueller-Hinton Broth), run with Streptococcus pneumoniae MIC test, read-out: MIC
  MIC: 2 µg/mL (≈ 2.18 µM)
S. aureus ATCC 27660; Staphylococcus aureus, ATCC27660, S. aureus ATCC 27660, Control Bacteria Set #2 (Mueller-Hinton Broth), run with Streptococcus viridans group MIC test, read-out: MIC
  MIC: 1 µg/mL (≈ 1.09 µM)
S. aureus ATCC 27660; Staphylococcus aureus, ATCC27660, S. aureus ATCC 27660, control bacteria run with Pseudomonas aeruginosa MIC test, read-out: MIC
  MIC: 0.25 µg/mL (≈ 0.273 µM)
S. aureus ATCC 27660; Staphylococcus aureus, ATCC27660, S. aureus ATCC 27660, control bacteria run with S. aureus fluoroquinolone-resistant MIC test, read-out: MIC
  MIC: 8 µg/mL (≈ 8.72 µM)
S. aureus ATCC 27660; Staphylococcus aureus, ATCC27660, S. aureus ATCC 27660, control bacteria run with S. aureus fluoroquinolone-susceptible MIC test, read-out: MIC
  MIC: 16 µg/mL (≈ 17.4 µM)
S. aureus ATCC 27660; Staphylococcus aureus, ATCC27660, S. aureus ATCC 27660, control bacteria run with S. epidermidis fluoroquinolone-resistant MIC test, read-out: MIC
  MIC: 0.25 µg/mL (≈ 0.273 µM)
S. aureus ATCC 27660; Staphylococcus aureus, ATCC27660, S. aureus ATCC 27660, control bacteria run with S. epidermidis fluoroquinolone-susceptible MIC test, read-out: MIC
  MIC: 0.25 µg/mL (≈ 0.273 µM)
S. aureus ATCC 27660; Staphylococcus aureus, ATCC27660, S. aureus ATCC 27660, control bacteria run with Serratia marcescens MIC test, read-out: MIC
  MIC: 0.5 µg/mL (≈ 0.545 µM)
S. aureus ATCC 27660; Staphylococcus aureus, ATCC27660, S. aureus ATCC 27660, MIC previously obtained (target MIC), printed in parentheses, read-out: MIC for Control Bacteria within the parentheses
  MIC: 0.78 µg/mL (≈ 0.851 µM)
S. aureus ATCC 27660; Staphylococcus aureus, ATCC27660, S. aureus ATCC27660, read-out: MIC
  MIC: 0.78 µg/mL (≈ 0.851 µM)
S. aureus ATCC 27660; Staphylococcus aureus, ATCC27660, control for MIC test HI (Control Bacteria Set #2), read-out: MIC of control bacteria on day of MIC testing
  MIC: 0.5 µg/mL
S. aureus ATCC 27660; Staphylococcus aureus, ATCC27660, control for MIC test MS (Control Bacteria Set #2), read-out: MIC of control bacteria on day of MIC testing
  MIC: 0.5 µg/mL
S. aureus ATCC 27660; Staphylococcus aureus, ATCC27660, control for MIC test PA, read-out: MIC of control bacteria on day of MIC testing
  MIC: 0.25 µg/mL
S. aureus ATCC 27660; Staphylococcus aureus, ATCC27660, control for MIC test SA-FQR, read-out: MIC of control bacteria on day of MIC testing
  MIC: 8 µg/mL
S. aureus ATCC 27660; Staphylococcus aureus, ATCC27660, control for MIC test SA-FQS, read-out: MIC of control bacteria on day of MIC testing
  MIC: 16 µg/mL
S. aureus ATCC 27660; Staphylococcus aureus, ATCC27660, control for MIC test SE-FQR, read-out: MIC of control bacteria on day of MIC testing
  MIC: 0.25 µg/mL
S. aureus ATCC 27660; Staphylococcus aureus, ATCC27660, control for MIC test SE-FQS, read-out: MIC of control bacteria on day of MIC testing
  MIC: 0.25 µg/mL
S. aureus ATCC 27660; Staphylococcus aureus, ATCC27660, control for MIC test SM, read-out: MIC of control bacteria on day of MIC testing
  MIC: 0.5 µg/mL
S. aureus ATCC 27660; Staphylococcus aureus, ATCC27660, control for MIC test SP, read-out: MIC of control bacteria on day of MIC testing
  MIC: 2 µg/mL
S. aureus ATCC 27660; Staphylococcus aureus, ATCC27660, control for MIC test SV, read-out: MIC of control bacteria on day of MIC testing
  MIC: 1 µg/mL
S. aureus ATCC 27660; Staphylococcus aureus, ATCC27660, reference MIC printed in parentheses beside the day's control value, read-out: MIC for Control Bacteria (within the parentheses)
  MIC: 0.78 µg/mL (≈ 0.851 µM)
